Data as given in patent US6756359B2, “C12 modified erythromycin macrolides and ketolides having antibacterial activity” (Chiron Corporation, priority 2001, dated 2004).
In brackets after ≈: the same amount, converted by molar mass.

What was measured:
Experiment in all cases: Antibacterial activity in vitro, MIC by broth microdilution
S. pneumoniae Stpn_49619 = format: cell-based, Streptococcus pneumoniae; settings: Table 5, Strain ID F: S. pneumoniae Stpn_49619
How it was run: (§1)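 Broth microdilution per NCCLS in cation-adjusted Mueller-Hinton broth, final inoculum 3×10^5–7×10^5 CFU/mL, 2-fold serial drug dilutions, 35° C. for 18-24 hours. S. pneumoniae grown in CAMHB with 2-5% lysed horse blood under 5-10% CO2. MIC is the lowest concentration preventing visible growth.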

[1] = test system: S. pneumoniae Stpn_Mef S 3427; format: cell-based, Streptococcus pneumoniae; settings: Table 5, Strain ID L: S. pneumoniae Stpn_Mef S 3427; unit assumed
How it was run: as §1

[2] = test system: S. pneumoniae Stpn_Erm 6849; format: cell-based, Streptococcus pneumoniae; settings: Table 5, Strain ID I: S. pneumoniae Stpn_Erm 6849; unit assumed
How it was run: as §1

[3] = test system: S. pneumoniae Stpn_Erm S 4297; format: cell-based, Streptococcus pneumoniae; settings: Table 5, Strain ID J: S. pneumoniae Stpn_Erm S 4297
How it was run: as §1

[4] = test system: S. pneumoniae Stpn_280-962 Pen S; format: cell-based, Streptococcus pneumoniae; settings: Table 5, Strain ID H: S. pneumoniae Stpn_280-962
How it was run: as §1

[5] = test system: S. pneumoniae Stpn_Mef 5654; format: cell-based, Streptococcus pneumoniae; settings: Table 5, Strain ID K: S. pneumoniae Stpn_Mef 5654; unit assumed
How it was run: as §1

[6] = test system: S. pneumoniae Stpn_297-749 Pen R; format: cell-based, Streptococcus pneumoniae; settings: Table 5, Strain ID G: S. pneumoniae Stpn_297-749
How it was run: as §1

S. aureus Stau_29213 = format: cell-based; settings: Table 5, Strain ID A: S. aureus Stau_29213; unit assumed
How it was run: as §1

[7] = test system: S. epidermidis Step_f50654 Pen S; format: cell-based; settings: Table 5, Strain ID C: S. epidermidis Step_f50654; unit assumed
How it was run: as §1

S. pyogenes Stpy_8668 = format: cell-based; settings: Table 5, Strain ID E: S. pyogenes Stpy_8668
How it was run: as §1

[8] = test system: S. epidermidis Step_14990; format: cell-based; settings: Table 5, Strain ID B: S. epidermidis Step_14990; unit assumed
How it was run: as §1

E. faecalis Enfa_29212 = format: cell-based; settings: Table 5, Strain ID D: E. faecalis Enfa_29212; unit assumed
How it was run: as §1

H. influenzae Hain_49247 = format: cell-based, Haemophilus influenzae; settings: Table 5, Strain ID M: H. influenzae Hain_49247; unit assumed
How it was run: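 Visible-growth inhibition defined the MIC, obtained by NCCLS broth microdilution at 35° C. over 18-24 hours with a final inoculum of 3×10^5–7×10^5 CFU/mL.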

| Structure (SMILES) | MIC (S. pneumoniae Stpn_49619; unit assumed) [µg/mL] | MIC [1] [µg/mL] | MIC [2] [µg/mL] | MIC ([3]; unit assumed) [µg/mL] | MIC ([4]; unit assumed) [µg/mL] | MIC [5] [µg/mL] | MIC ([6]; unit assumed) [µg/mL] | MIC (S. aureus Stau_29213) [µg/mL] | MIC [7] [µg/mL] | MIC (S. pyogenes Stpy_8668; unit assumed) [µg/mL] | MIC [8] [µg/mL] | MIC (E. faecalis Enfa_29212) [µg/mL] | MIC (H. influenzae Hain_49247) [µg/mL] | MIC (S. pneumoniae Stpn_49619) | MIC [4] | MIC [6] | MIC (S. pyogenes Stpy_8668) | MIC [3] |
| --- | --- | --- | --- | --- | --- | --- | --- | --- | --- | --- | --- | --- | --- | --- | --- | --- | --- | --- |
| CC[C@H]1OC(=O)[C@H](C)C(=O)[C@H](C)[C@@H](OC2O[C@H](C)C[C@H](N(C)C)[C@H]2O)[C@@](C)(OC)C[C@@H](C)C(=O)[C@H](C)[C@H]2N(CCCOc3ccc(-c4cccnc4)cc3)C(=O)O[C@]12CC (stereo partly drawn) [Example 36, (3aS,4R,7R,9R,10R,11S,13R,15R,15aR)-3a,4-diethyl-11-methoxy-7,9,11,13,15-pentamethyl-2,6,8,14-tetraoxo-1-[3-(4-pyridin-3-ylphenoxy)propyl]-tetradecahydro-2H-oxacyclotetradecino[4,3-d][1,3]oxazol-10-yl 3,4,6-trideoxy-3-(dimethylamino)-D-xylo-hexopyranoside] | 25 (≈ 29.8 µM) | 0.78 (≈ 0.931 µM) | 0.1 (≈ 0.119 µM) | 12.5 (≈ 14.9 µM) | 0.1 (≈ 0.119 µM) | 12.5 (≈ 14.9 µM) | 0.1 (≈ 0.119 µM) | 6.25 (≈ 7.46 µM) | 0.78 (≈ 0.931 µM) | 0.4 (≈ 0.477 µM) | 1.56 (≈ 1.86 µM) | 0.78 (≈ 0.931 µM) | 0.2 (≈ 0.239 µM) |  |  |  |  |  |
| CC[C@H]1OC(=O)[C@H](C)C(=O)[C@H](C)[C@@H](OC2O[C@H](C)C[C@H](N(C)C)[C@H]2O)[C@@](C)(OC)C[C@@H](C)C(=O)[C@H](C)[C@H]2N(CCCC(C)(C)n3cnc4ncccc43)C(=O)O[C@]12CC (stereo partly drawn) [Example 37, (3aS,4R,7R,9R,10R,11S,13R,15R,15aR)-3a,4-diethyl-1-[4-(1H-imidazo[4,5-b]pyridin-1-yl)-4-methylpentyl]-11-methoxy-7,9,11,13,15-pentamethyl-2,6,8,14-tetraoxotetradecahydro-2H-oxacyclotetradecino[4,3-d][1,3]oxazol-10-yl 3,4,6-trideoxy-3-(dimethylamino)-D-xylo-hexopyranoside] |  | 0.2 (≈ 0.242 µM) | 0.4 (≈ 0.483 µM) | 0.1 (≈ 0.121 µM) |  | 1.56 (≈ 1.88 µM) |  | 0.4 (≈ 0.483 µM) | 0.2 (≈ 0.242 µM) |  | 0.2 (≈ 0.242 µM) | 0.1 (≈ 0.121 µM) | 6.25 (≈ 7.55 µM) | ≦0.05 | ≦0.05 | ≦0.05 | ≦0.05 |  |
| CC[C@H]1OC(=O)[C@H](C)C(=O)[C@H](C)[C@@H](OC2O[C@H](C)C[C@H](N(C)C)[C@H]2O)[C@@](C)(OC)C[C@@H](C)C(=O)[C@H](C)[C@H]2N(CCCC(C)(C)n3cnc4cccnc43)C(=O)O[C@]12CC (stereo partly drawn) [Example 38, (3aS,4R,7R,9R,10R,11S,13R,15R,15aR)-3a,4-diethyl-1-[4-(3H-imidazol[4,5-b]pyridin-3-yl)-4-methylpentyl]-11-methoxy-7,9,11,13,15-pentamethyl-2,6,8,14-tetraoxotetradecahydro-2H-oxacyclotetradecino[4,3-d][1,3]oxazol-10-yl 3,4,6-trideoxy-3-(dimethylamino)-D-xylo-hexopyranoside] |  | 0.1 (≈ 0.121 µM) | 0.4 (≈ 0.483 µM) | 0.1 (≈ 0.121 µM) |  | 0.78 (≈ 0.942 µM) |  | 0.2 (≈ 0.242 µM) | 0.2 (≈ 0.242 µM) |  | 0.2 (≈ 0.242 µM) | 0.1 (≈ 0.121 µM) | 6.25 (≈ 7.55 µM) | ≦0.05 | ≦0.05 | ≦0.05 | ≦0.05 |  |
| CC[C@H]1OC(=O)[C@@](C)(F)C(=O)[C@H](C)[C@@H](O[C@@H]2O[C@H](C)C[C@H](N(C)C)[C@H]2O)[C@@](C)(OC)C[C@@H](C)C(=O)[C@H](C)[C@H]2N(CCCC(C)(C)n3cnc4cccnc43)C(=O)O[C@]12CC [Example 40, (3aS,4R,7S,9R,10R,11S,13R,15R,15aR)-3a,4-diethyl-7-fluoro-1-[4-(3H-imidazo[4,5-b]pyridin-3-yl)-4-methylpentyl]-11-methoxy-7,9,11,13,15-pentamethyl-2,6,8,14-tetraoxotetradecahydro-2H-oxacyclotetradecino[4,3-d][1,3]oxazol-10-yl 3,4,6-trideoxy-3-(dimethylamino)-D-xylo-hexopyranoside] |  | 0.2 (≈ 0.236 µM) | 0.2 (≈ 0.236 µM) |  |  | 0.78 (≈ 0.922 µM) |  | 0.2 (≈ 0.236 µM) | 0.2 (≈ 0.236 µM) |  | 0.2 (≈ 0.236 µM) | 0.1 (≈ 0.118 µM) | 6.25 (≈ 7.39 µM) | ≦0.05 | ≦0.05 | ≦0.05 | ≦0.05 | ≦0.05 |
